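Step 1: Grow cells in 96-well plates. Step 2: Expose to compound for 48 hours at 5 concentrations. Step 3: Interpolate endpoints linearly; if unreached, use highest concentration. GI50: concentration for 50% inhibition of growth.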 The source made the active and inactive calls. No stated cut-off is given here; in the data, active = GI50 up to about 1.1 µM and inactive = higher.
How the values were obtained:
Assay in all cases: NCI anticancer screen, dose series, 48 h
786-0 = test system: 786-0
A549 = test system: A549
ACHN = test system: ACHN
CAKI-1 = test system: CAKI-1
CCRF-CEM = test system: CCRF-CEM
COLO 205 = test system: COLO 205
DLD-1 = test system: DLD-1
DMS-114 = test system: DMS-114
DMS-273 = test system: DMS-273
EKVX = test system: EKVX
HCC 2998 = test system: HCC 2998
HCT-116 = test system: HCT-116
HCT-15 = test system: HCT-15
HL-60 = test system: HL-60
HOP-18 = test system: HOP-18
HOP-62 = test system: HOP-62
HT-29 = test system: HT-29
IGROV-1 = test system: IGROV-1
K562 = test system: K562
KM-20L2 = test system: KM-20L2
KM12 = test system: KM12
LOX IMVI = test system: LOX IMVI
LXFL 529 = test system: LXFL 529
M14 = test system: M14
M19-MEL = test system: M19-MEL
MOLT-4 = test system: MOLT-4
Malme-3M = test system: Malme-3M
NCI-H226 = test system: NCI-H226
NCI-H23 = test system: NCI-H23
NCI-H460 = test system: NCI-H460
NCI-H522 = test system: NCI-H522
OVCAR-3 = test system: OVCAR-3
OVCAR-4 = test system: OVCAR-4
OVCAR-8 = test system: OVCAR-8
RPMI-8226 = test system: RPMI-8226
RXF 393 = test system: RXF 393
SF-268 = test system: SF-268
SF-295 = test system: SF-295
SF-539 = test system: SF-539
SK-MEL-28 = test system: SK-MEL-28
SK-MEL-2 = test system: SK-MEL-2
SK-MEL-5 = test system: SK-MEL-5
SK-OV-3 = test system: SK-OV-3
SN12C = test system: SN12C
SNB-19 = test system: SNB-19
SNB-75 = test system: SNB-75
SNB-78 = test system: SNB-78
SR = test system: SR
SW-620 = test system: SW-620
TK-10 = test system: TK-10
U-251 = test system: U-251
UACC-257 = test system: UACC-257
UACC-62 = test system: UACC-62
UO-31 = test system: UO-31
XF498 = test system: XF498
A498 = test system: A498
HOP-92 = test system: HOP-92
OVCAR-5 = test system: OVCAR-5

Cc1nc(N2N=C(c3ccc(Cl)cc3)CCC2=O)sc1[N+](=O)[O-]
GI50 (786-0): > 100 µM (inactive) | GI50 (A549): > 100 µM (inactive) | GI50 (ACHN): > 100 µM (inactive) | GI50 (CAKI-1): > 100 µM (inactive) | GI50 (CCRF-CEM): > 100 µM (inactive) | GI50 (COLO 205): > 100 µM (inactive) | GI50 (DLD-1): > 100 µM (inactive) | GI50 (DMS-114): > 100 µM (inactive) | GI50 (DMS-273): > 100 µM (inactive) | GI50 (EKVX): 67.6 µM (inactive) | GI50 (HCC 2998): > 100 µM (inactive) | GI50 (HCT-116): > 100 µM (inactive) | GI50 (HCT-15): > 100 µM | GI50 (HL-60): > 100 µM (inactive) | GI50 (HOP-18): > 100 µM (inactive) | GI50 (HOP-62): > 100 µM (inactive) | GI50 (HT-29): > 100 µM (inactive) | GI50 (IGROV-1): > 100 µM (inactive) | GI50 (K562): > 100 µM (inactive) | GI50 (KM-20L2): > 100 µM (inactive) | GI50 (KM12): > 100 µM (inactive) | GI50 (LOX IMVI): > 100 µM (inactive) | GI50 (LXFL 529): > 100 µM (inactive) | GI50 (M14): > 100 µM (inactive) | GI50 (M19-MEL): > 100 µM (inactive) | GI50 (MOLT-4): > 100 µM (inactive) | GI50 (Malme-3M): > 100 µM (inactive) | GI50 (NCI-H226): > 100 µM (inactive) | GI50 (NCI-H23): > 100 µM (inactive) | GI50 (NCI-H460): > 100 µM (inactive) | GI50 (NCI-H522): > 100 µM (inactive) | GI50 (OVCAR-3): > 100 µM (inactive) | GI50 (OVCAR-4): > 100 µM (inactive) | GI50 (OVCAR-8): > 100 µM (inactive) | GI50 (RPMI-8226): > 100 µM (inactive) | GI50 (RXF 393): > 100 µM (inactive) | GI50 (SF-268): > 100 µM (inactive) | GI50 (SF-295): > 100 µM (inactive) | GI50 (SF-539): > 100 µM (inactive) | GI50 (SK-MEL-28): > 100 µM (inactive) | GI50 (SK-MEL-2): > 100 µM (inactive) | GI50 (SK-MEL-5): > 100 µM (inactive) | GI50 (SK-OV-3): > 100 µM (inactive) | GI50 (SN12C): > 100 µM (inactive) | GI50 (SNB-19): > 100 µM (inactive) | GI50 (SNB-75): > 100 µM (inactive) | GI50 (SNB-78): > 100 µM (inactive) | GI50 (SR): > 100 µM (inactive) | GI50 (SW-620): > 100 µM (inactive) | GI50 (TK-10): > 100 µM (inactive) | GI50 (U-251): > 100 µM (inactive) | GI50 (UACC-257): > 100 µM (inactive) | GI50 (UACC-62): > 100 µM (inactive) | GI50 (UO-31): > 100 µM (inactive) | GI50 (XF498): > 100 µM (inactive)

N#Cc1ccccc1/C=N/O
GI50 (786-0): > 76.7 µM (inactive) | GI50 (A498): > 100 µM (inactive) | GI50 (A549): > 100 µM (inactive) | GI50 (ACHN): > 60.3 µM (inactive) | GI50 (CAKI-1): > 100 µM (inactive) | GI50 (CCRF-CEM): > 50.8 µM (inactive) | GI50 (COLO 205): > 49.7 µM (inactive) | GI50 (DLD-1): > 93.8 µM (inactive) | GI50 (DMS-114): > 59.4 µM (inactive) | GI50 (DMS-273): > 41.4 µM (inactive) | GI50 (EKVX): > 100 µM (inactive) | GI50 (HCC 2998): > 100 µM (inactive) | GI50 (HCT-116): > 44.2 µM (inactive) | GI50 (HCT-15): > 41 µM | GI50 (HL-60): > 44.4 µM (inactive) | GI50 (HOP-18): > 100 µM (inactive) | GI50 (HOP-62): > 100 µM (inactive) | GI50 (HOP-92): > 100 µM (inactive) | GI50 (HT-29): > 75.3 µM (inactive) | GI50 (IGROV-1): > 100 µM (inactive) | GI50 (K562): > 44.7 µM (inactive) | GI50 (KM-20L2): > 100 µM (inactive) | GI50 (KM12): > 100 µM (inactive) | GI50 (LOX IMVI): > 100 µM (inactive) | GI50 (LXFL 529): > 91.4 µM (inactive) | GI50 (M14): > 100 µM (inactive) | GI50 (M19-MEL): > 100 µM (inactive) | GI50 (MOLT-4): > 100 µM (inactive) | GI50 (Malme-3M): > 100 µM (inactive) | GI50 (NCI-H226): > 100 µM (inactive) | GI50 (NCI-H23): > 100 µM (inactive) | GI50 (NCI-H460): > 59.2 µM (inactive) | GI50 (NCI-H522): > 100 µM (inactive) | GI50 (OVCAR-3): > 100 µM (inactive) | GI50 (OVCAR-4): > 100 µM (inactive) | GI50 (OVCAR-5): > 100 µM (inactive) | GI50 (OVCAR-8): > 100 µM (inactive) | GI50 (RPMI-8226): > 42.2 µM (inactive) | GI50 (RXF 393): > 100 µM (inactive) | GI50 (SF-268): > 100 µM (inactive) | GI50 (SF-295): > 100 µM (inactive) | GI50 (SF-539): > 100 µM (inactive) | GI50 (SK-MEL-28): > 100 µM (inactive) | GI50 (SK-MEL-5): > 100 µM (inactive) | GI50 (SK-OV-3): > 100 µM (inactive) | GI50 (SN12C): > 100 µM (inactive) | GI50 (SNB-19): > 100 µM (inactive) | GI50 (SNB-75): > 69.5 µM (inactive) | GI50 (SNB-78): > 100 µM (inactive) | GI50 (SR): > 100 µM (inactive) | GI50 (SW-620): > 36.9 µM (inactive) | GI50 (TK-10): > 100 µM (inactive) | GI50 (U-251): > 81.1 µM (inactive) | GI50 (UACC-257): > 100 µM (inactive) | GI50 (UACC-62): > 100 µM (inactive) | GI50 (UO-31): > 100 µM (inactive) | GI50 (XF498): > 100 µM (inactive)
